“And” between values parts separate entries of the source, which are not always exact repeats. Identical values can stand only once. Like-named read-outs stand apart in the source and are kept apart here.
Experiments:
[1] = tested on: bacillus atrophaeus spores; details: 2.59 percent H2O2; time 60 min relative to time zero; side tubes; slow speed, without cartons
Protocol: (§1) Studies were conducted to determine the microbial eradication on mandrels 34 that were subjected to vaporized sterilant introduced at the heaters 40. […] The efficacy of the mandrel sterilization was studied for both the mandrel caps 35 and the mandrel side tubes 37 (see FIG. 3).
(§2) Each of the studies was further carried out using a testing media of bacillus atrophaeus spores for inoculating the mandrels. The mandrels were inoculated by spraying, using an aerating spray bottle having a solution with a concentration of about 7 log bacillus spores. The mandrels were then allowed to air dry. Controls were swabbed using cotton swabs to assure that the mandrels were properly inoculated. Following the machine operating period of the test, the mandrels were swabbed and the bacillus spores transferred to an agar media for incubation of the spores (at 32° C. for 48 hours) and subsequent recovery.
The data was collected by taking swab samples at the mandrel cap 35 (represented by C in the Table) and on the mandrel side tubes 37 (represented by T in the Table).

[2] = tested on: bacillus atrophaeus spores; details: 2.52 percent H2O2, with cartons; for average count of colony forming units for the time period / log of average count for the time period: mean of samples; for average count of colony forming units for the time period / log of average count for the time period / Log Red. (Avg): normal speed; for Average CFU/mL / Average CFU/mandrel / Log (of Average CFU/mandrel) / Result #1 CFU/mL / Result #2 CFU/mL: normal operating speed
Protocol: as §1, §2
The data was collected by taking swab samples at the mandrel cap (C) and on the mandrel side tubes (T). The mandrel side tube data is the sum of all of the side tubes.

[3] = time 0 min, swab site C (mandrel cap)
[4] = time 0 min, swab site T (mandrel side tubes)
[5] = time 10 min, swab site C (mandrel cap)
[6] = time 10 min, swab site T (mandrel side tubes)
[7] = time 20 min, swab site C (mandrel cap)
[8] = time 20 min, swab site T (mandrel side tubes)
[9] = time 30 min, swab site C (mandrel cap)
[10] = time 30 min, swab site T (mandrel side tubes)
[11] = time 40 min, swab site T (mandrel side tubes)

OO [hydrogen peroxide]
Log Red. (Avg) [1]: 0.05 Log | average count of colony forming units for the time period ([2]; time 0 min, cap): 5.09E+05 CFU/mandrel | log of average count for the time period ([2]; time 0 min, cap): 5.71 log | average count of colony forming units for the time period ([2]; time 0 min, side tubes): 7.12E+05 CFU/mandrel | log of average count for the time period ([2]; time 0 min, side tubes): 5.85 log | Average CFU/mL [2, 3]: 1.32E+05 CFU/mL and 1.23E+05 CFU/mL | Average CFU/mandrel [2, 3]: 5.28E+05 CFU/mandrel and 4.90E+05 CFU/mandrel | Log (of Average CFU/mandrel) [2, 3]: 5.72 Log and 5.69 Log | Result #1 CFU/mL [2, 3]: 1.19E+05 CFU/mL and 1.30E+05 CFU/mL | Result #2 CFU/mL [2, 3]: 1.45E+05 CFU/mL and 1.15E+05 CFU/mL | Average CFU/mL [2, 4]: 1.83E+05 CFU/mL and 1.73E+05 CFU/mL | Average CFU/mandrel [2, 4]: 7.32E+05 CFU/mandrel and 6.92E+05 CFU/mandrel | Log (of Average CFU/mandrel) [2, 4]: 5.86 Log and 5.84 Log | Result #1 CFU/mL [2, 4]: 1.39E+05 CFU/mL and 1.71E+05 CFU/mL | Result #2 CFU/mL [2, 4]: 2.27E+05 CFU/mL and 1.75E+05 CFU/mL | average count of colony forming units for the time period ([2]; time 10 min, cap): 1.57E+05 CFU/mandrel | log of average count for the time period ([2]; time 10 min, cap): 5.20 log | average count of colony forming units for the time period ([2]; time 10 min, side tubes): 3.58E+05 CFU/mandrel | log of average count for the time period ([2]; time 10 min, side tubes): 5.55 log | Average CFU/mL [2, 5]: 3.35E+04 CFU/mL and 4.50E+04 CFU/mL | Average CFU/mandrel [2, 5]: 1.34E+05 CFU/mandrel and 1.80E+05 CFU/mandrel | Log (of Average CFU/mandrel) [2, 5]: 5.13 Log and 5.26 Log | Result #1 CFU/mL [2, 5]: 3.50E+04 CFU/mL and 4.40E+04 CFU/mL | Result #2 CFU/mL [2, 5]: 3.20E+04 CFU/mL and 4.60E+04 CFU/mL | Average CFU/mL [2, 6]: 9.25E+04 CFU/mL and 8.65E+04 CFU/mL | Average CFU/mandrel [2, 6]: 3.70E+05 CFU/mandrel and 3.46E+05 CFU/mandrel | Log (of Average CFU/mandrel) [2, 6]: 5.57 Log and 5.54 Log | Result #2 CFU/mL [2, 6]: 9.70E+04 CFU/mL and 6.70E+04 CFU/mL | Log Red. (Avg) ([2]; time 10 min relative to time zero, cap): 0.51 Log | Log Red. (Avg) ([2]; time 10 min relative to time zero, side tubes): 0.30 Log | average count of colony forming units for the time period ([2]; time 20 min, cap): 8.86E+04 CFU/mandrel | log of average count for the time period ([2]; time 20 min, cap): 4.95 log | average count of colony forming units for the time period ([2]; time 20 min, side tubes): 4.49E+05 CFU/mandrel | log of average count for the time period ([2]; time 20 min, side tubes): 5.65 log | Log (of Average CFU/mandrel) [2, 7]: 4.88 Log and 5.01 Log | Result #1 CFU/mL [2, 7]: 1.93E+04 CFU/mL and 2.82E+04 CFU/mL | Result #2 CFU/mL [2, 7]: 1.86E+04 CFU/mL and 2.25E+04 CFU/mL | Average CFU/mandrel [2, 8]: 5.58E+05 CFU/mandrel and 3.40E+05 CFU/mandrel | Log (of Average CFU/mandrel) [2, 8]: 5.75 Log and 5.53 Log | Log Red. (Avg) ([2]; time 20 min relative to time zero, cap): 0.76 Log | Log Red. (Avg) ([2]; time 20 min relative to time zero, side tubes): 0.20 Log | average count of colony forming units for the time period ([2]; time 30 min, cap): 4.39E+04 CFU/mandrel | log of average count for the time period ([2]; time 30 min, cap): 4.64 log | average count of colony forming units for the time period ([2]; time 30 min, side tubes): 2.49E+05 CFU/mandrel | log of average count for the time period ([2]; time 30 min, side tubes): 5.40 log | Average CFU/mandrel [2, 9]: 5.06E+04 CFU/mandrel and 3.72E+04 CFU/mandrel | Log (of Average CFU/mandrel) [2, 9]: 4.70 Log and 4.57 Log | Result #2 CFU/mL [2, 9]: 1.12E+04 CFU/mL and 1.04E+04 CFU/mL | Average CFU/mL [2, 10]: 6.25E+04 CFU/mL and 6.20E+04 CFU/mL | Average CFU/mandrel [2, 10]: 2.50E+05 CFU/mandrel and 2.48E+05 CFU/mandrel | Log (of Average CFU/mandrel) [2, 10]: 5.40 Log and 5.39 Log | Result #1 CFU/mL [2, 10]: 6.30E+04 CFU/mL and 5.10E+04 CFU/mL | Result #2 CFU/mL [2, 10]: 6.20E+04 CFU/mL and 7.30E+04 CFU/mL | Log Red. (Avg) ([2]; time 30 min relative to time zero, cap): 1.06 Log | Log Red. (Avg) ([2]; time 30 min relative to time zero, side tubes): 0.46 Log | average count of colony forming units for the time period ([2]; time 40 min, cap): 5.21E+03 CFU/mandrel | log of average count for the time period ([2]; time 40 min, cap): 3.72 log | average count of colony forming units for the time period ([2]; time 40 min, side tubes): 1.15E+05 CFU/mandrel | log of average count for the time period ([2]; time 40 min, side tubes): 5.06 log | Average CFU/mL [2, 11]: 2.71E+04 CFU/mL and 3.05E+04 CFU/mL | Average CFU/mandrel [2, 11]: 1.08E+05 CFU/mandrel and 1.22E+05 CFU/mandrel | Log (of Average CFU/mandrel) [2, 11]: 5.04 Log and 5.09 Log | Result #1 CFU/mL [2, 11]: 2.50E+04 CFU/mL and 2.89E+04 CFU/mL | Result #2 CFU/mL [2, 11]: 2.92E+04 CFU/mL and 3.21E+04 CFU/mL | Log Red. (Avg) ([2]; time 40 min relative to time zero, cap): 1.99 Log | Log Red. (Avg) ([2]; time 40 min relative to time zero, side tubes): 0.79 Log

— patent US20040191115A1 (priority 2003, published 2004)
